From PubChem BioAssay (NCI)
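Step 1: Grow cells in 96-well plates. Step 2: Expose to compound for 48 hours at 5 concentrations. Step 3: Interpolate endpoints linearly; if unreached, use highest concentration. GI50 = concentration required for 50% inhibition of growth. The concentration for full growth arrest is given as TGI.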

Experiments:
Assay in all cases: NCI anticancer screen, dose series, 48 h
DU-145 prostate = test system: DU-145 prostate
NCI-H23 lung = test system: NCI-H23 lung
MCF7 breast = test system: MCF7 breast
TK-10 renal = test system: TK-10 renal
OVCAR-8 ovarian = test system: OVCAR-8 ovarian
HOP-62 NSCLC = test system: HOP-62 NSCLC
NCI-H460 lung = test system: NCI-H460 lung
A498 renal = test system: A498 renal
OVCAR-3 ovarian = test system: OVCAR-3 ovarian
HCC-2998 colon = test system: HCC-2998 colon

| SMILES | TGI (DU-145 prostate) [µM] | TGI (NCI-H23 lung) [µM] | TGI (MCF7 breast) [µM] | TGI (TK-10 renal) [µM] | TGI (OVCAR-8 ovarian) [µM] | TGI (HOP-62 NSCLC) [µM] | TGI (NCI-H460 lung) [µM] | TGI (A498 renal) [µM] | TGI (OVCAR-3 ovarian) [µM] | TGI (HCC-2998 colon) [µM] | GI50 (NCI-H23 lung) [µM] | GI50 (TK-10 renal) [µM] | GI50 (OVCAR-8 ovarian) [µM] | GI50 (HOP-62 NSCLC) [µM] | GI50 (OVCAR-3 ovarian) [µM] | GI50 (HCC-2998 colon) [µM] | GI50 (A498 renal) [µM] | GI50 (DU-145 prostate) [µM] | GI50 (MCF7 breast) [µM] | GI50 (NCI-H460 lung) [µM] |
| --- | --- | --- | --- | --- | --- | --- | --- | --- | --- | --- | --- | --- | --- | --- | --- | --- | --- | --- | --- | --- |
| NS(=O)(=O)c1ccc(CNC(=S)NC(=O)Nc2ccc(Cl)c(Cl)c2)cc1 | > 100 | 30.2 | 39 | > 100 | 53.4 | 38.3 | 94 | 33.5 | – | – | – | – | – | – | – | – | – | – | – | – |
| C[Si](C)(C)C#C[I+]c1ccccc1 | – | > 100 | – | > 100 | 50.1 | > 100 | > 100 | > 100 | 86.2 | > 100 | – | – | – | – | – | – | – | – | – | – |
| N#Cc1nn(-c2ccc(Cl)cc2)c(N)c2c(=N)n3nc(-c4ccccc4)cc3nc12 | – | > 51.9 | – | > 100 | > 100 | > 33.8 | > 92.3 | > 56.7 | > 35.5 | 0.0134 | – | – | – | – | – | – | – | – | – | – |
| O=c1c(-c2ccccc2)c[nH]c2cc([N+](=O)[O-])c(/C(Cl)=C/c3ccccc3)cc12 | – | > 44.5 | – | – | 17.5 | 52 | 44.8 | 35.4 | 8.72 | – | – | – | – | – | – | – | – | – | – | – |
| CCc1nnc2sc(-c3ccc(-c4ccc(Cl)cc4Cl)o3)nn12 | > 100 | > 100 | – | > 100 | > 100 | > 100 | > 100 | > 100 | > 100 | – | – | – | – | – | – | – | – | – | – | – |
| OC(Cn1cncn1)(Cn1cncn1)c1ccc(Cl)cc1Cl | – | > 100 | – | > 100 | > 100 | > 100 | > 100 | > 100 | > 100 | – | – | – | – | – | – | – | – | – | – | – |
| COc1cccc2c1C(=O)c1c(O)c3c(c(O)c1C2=O)C[C@@](O)(C(C)=O)C[C@@H]3OC1CC(N)C(O)C(C)O1 (some centres not stated) | – | – | – | – | – | – | – | – | – | – | < 0.0235 | 0.144 | < 0.0201 | < 0.0127 | 0.0664 | – | – | – | – | – |
| CC(C)(C)NCC(O)COc1cccc2[nH]c(C#N)cc12 (configuration not stated) | > 100 | > 100 | > 100 | > 100 | > 100 | > 100 | – | > 100 | > 100 | – | – | – | – | – | – | – | – | – | – | – |
| NC12c3c4cccc3Oc3cccc(c31)Oc1cccc(c12)O4 | > 50 | > 50 | > 50 | – | > 50 | > 50 | > 50 | > 50 | > 50 | – | – | – | – | – | – | – | – | – | – | – |
| NC(=O)c1cc2ccccc2c(N=Nc2ccccc2)c1O | > 100 | > 100 | – | > 100 | > 100 | > 100 | – | > 100 | > 100 | – | – | – | – | – | – | – | – | – | – | – |
| CCOC(=O)Cc1csc(/N=C\c2c(O)c3ccccc3oc2=O)n1 | – | 94.4 | > 100 | > 100 | > 100 | 75.9 | > 100 | – | 77.1 | – | – | – | – | – | – | – | – | – | – | – |
| CC(=O)O[C@H]1C(=O)[C@]2(C)[C@@H](OC(=O)OCC(O)CO)C[C@H]3OC[C@@]3(OC(C)=O)[C@H]2[C@H](OC(=O)c2ccccc2)[C@]2(O)C[C@H](OC(=O)[C@H](O)[C@@H](NC(=O)c3ccccc3)c3ccccc3)C(C)=C1C2(C)C (some centres not stated) | – | > 43.2 | > 39.7 | 70.8 | > 78.1 | 13.7 | 27.6 | – | < 0.01 | < 0.01 | – | – | – | – | – | – | – | – | – | – |
| Cc1cc2nc3c(C#N)c(-c4ccccc4)/c(=C\Nc4cccc(C(F)(F)F)c4)c(=O)n3c2cc1C | – | > 100 | > 100 | > 100 | > 100 | 66.9 | > 100 | > 100 | 54.4 | > 100 | – | – | – | – | – | – | – | – | – | – |
| CN1CCN(c2ccc3nc(-c4ccc(OCCCN5C(=O)c6cccc7cccc(c67)C5=O)cc4)[nH]c3c2)CC1 | – | 55.9 | – | > 71.2 | 5.48 | – | – | 50.4 | 95.6 | 52.6 | 8.1 | 8.54 | 2.38 | – | 27.1 | 20.6 | 24.1 | – | – | – |
| CC(=O)OC1COC(N2C(=O)C(=O)c3cc(Br)c([N+](=O)[O-])cc32)C(OC(C)=O)C1OC(C)=O (configuration not stated) | – | > 100 | – | > 100 | > 100 | > 100 | > 100 | – | > 100 | > 100 | – | – | – | – | – | – | – | – | – | – |
| N#CC(C(=O)c1ccccc1F)c1nc2cc(C(F)(F)F)ccc2s1 (configuration not stated) | > 100 | 53.9 | – | > 100 | > 100 | 63.1 | > 100 | 45.8 | 52.7 | – | – | – | – | – | – | – | – | – | – | – |
| COc1cc2c(cc1-c1c(C)noc1C)ncc1nc(C3CCCCC3)n(C3CCC(OC(F)F)CC3)c12 (configuration not stated) | > 100 | > 100 | > 100 | – | > 100 | > 100 | > 100 | – | – | – | 2.49 | – | 2.74 | 1.97 | – | – | – | 3.52 | 0.584 | 2.53 |
| CC(C)(C)CC(C)(C)Cc1ccc(OCCOCC[N+](C)(C)Cc2ccccc2)cc1 | 13.8 | 3.8 | – | 12.7 | – | 6.73 | 3.45 | 9.38 | 3.09 | 3.02 | 1.45 | 2.83 | – | 2.31 | 1.34 | 1.58 | 2.08 | 3.68 | – | 1.8 |
